This series can be described thus: gradient 5% acetonitrile 3 min, to 50% in 2 min, to 85% in 15 min, held 3 min, 100 µL/min. Particulars: column: Zorbax Extend-C18 2.1 x 50 mm; eluents: water / acetonitrile, 0.1% formic acid. An outline of the steps: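 Using water and acetonitrile that each contained 0.1% formic acid, mixtures of ~100 pure standards were separated at 100 μL/min on a Zorbax Extend-C18 column (2.1 × 50 mm, 1.8 μm). The HPLC fed a quadrupole time-of-flight mass spectrometer working in positive and negative ionization mode, with dead and dwell volumes of 40 μL and 900 μL. Data were acquired over 3 months. Retention time was read from computationally picked adduct peaks after manual inspection of each.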
As for `O=C(CN1CCN(Cc2ccc(F)cc2)C1=O)NCc1cc(F)ccc1F`, the RP-LC retention time came to 806 s. The compound `O=C([C@@H]1C[C@H](F)CN1S(=O)(=O)c1ccccc1F)N1CCc2ccccc2C1` came in with an RP-LC retention time of 887 s.

`Cc1ccc(NC(=O)N2CCC(c3nc(C(=O)N4CCCC4)c(C)o3)CC2)cc1` yielded an RP-LC retention time of 759 s. For `CCc1ccc(C(=O)Nc2cc(-c3ccn[nH]3)sc2C)cc1`, the RP-LC retention time came out at 1120 s. `COc1ccc(C(=O)N2CCC(Oc3cc(N(C)C)ncn3)C2)cc1` (centres undefined) showed an RP-LC retention time of 650 s.

Compound `CC12CC(c3ccccc3O1)C(C(=O)Nc1nc(-c3ccccc3)cs1)C(=O)N2` (centres undefined) had an RP-LC retention time of 996 s. Regarding `CC1=NS(=O)(=O)N(C)C=C1C(=O)OCc1nc(-c2ccc(OC(F)(F)F)cc2)no1`, the RP-LC retention time stood at 1100 s. Under `Cc1cc(Cl)ccc1S(=O)(=O)N1CCCC1c1nncn1-c1ccccc1` (centres undefined) stands 845 s; under `CCc1ccc(S(=O)(=O)c2cnc(N3CCN(c4cccc(Cl)c4)CC3)nc2N)cc1`, 1270 s; under `CCC(=O)Nc1cnc(-c2ccc(F)cc2)nc1`, 794 s. As for `COC(=O)c1cc2c(=O)n(-c3cc(OC)c(OC)c(OC)c3)ccc2nc1C`, the figure is 751 s.

Take `CCOC(=O)CNC(=O)C1CCN(c2ncccc2S(=O)(=O)N2CCCCC2)CC1`: the RP-LC retention time was determined as 784 s. As for `COCCn1ccc2nc(C)c(C(=O)NCCc3c[nH]c4ccccc34)cc2c1=O`, the figure is 767 s; as for `CC(=O)N1CCC(C(=O)Nc2nc(C(C)(C)C)cs2)CC1`, 731 s; as for `CCOc1ccc(-c2cn3ccn(-c4ccc(C)c(C)c4)c(=O)c3n2)cc1`, 949 s. As for `Cc1cccc(OCC(=O)N2CCN(c3cc(C)n4cnnc4n3)CC2)c1`, the figure is 621 s; as for `COc1ccc(NC(=O)C2CCN(C(=O)c3ncn4c3COC(c3ccc(OC)cc3)C4)CC2)cc1` (centres undefined), 760 s; as for `O=C(NCCN1CCOCC1)C1CCN(c2ccc3nnc(-c4ccccc4F)n3n2)CC1`, 693 s. The compound `Cc1ccccc1NC(=O)NC1CCN(c2ccccc2)C1=O` (centres undefined) yielded an RP-LC retention time of 781 s.

Consider `O=S(=O)(c1ccc2c(c1)CCC2)N1CCCC1c1nc(-c2cccc(Cl)c2)no1` (centres undefined), for which the RP-LC retention time is 1310 s. Compound `Cc1c(CC(=O)N2CCC(C(N)=O)CC2)c(=O)oc2cc3occ(C(C)(C)C)c3cc12` gave an RP-LC retention time of 785 s. For `CCCN(CC1CCOC1)C(=O)Nc1ccc(C)cc1` (centres undefined), the RP-LC retention time was determined as 764 s.

Turning to `CCC(C(=O)NCCc1ccco1)n1c2ccccc2c2cnn(C)c(=O)c21` (centres undefined), the RP-LC retention time came to 864 s. As for `Cc1ccn2cc(-c3ccc(NC(=O)C4CCCCC4)cc3)nc2n1`, the figure is 657 s; as for `O=C(c1ccc(-c2csc(C3CC3)n2)cc1)N1CCCCCC1`, 1070 s; as for `Cc1nn(C)c2c(=O)n(C(C)C(=O)NCc3ccc4c(c3)OCO4)ccc12` (centres undefined), 715 s. As for `Cc1ccc(CN2CC(c3ncc(C)n3Cc3ccccc3)C2)s1`, the figure is 587 s. Under `O=C(NCc1csc(C2CCN(C(=O)c3ccc(Cl)cc3)CC2)n1)C1CCC1` stands 761 s. Compound `COc1ccc(-c2nnc(Cc3nc(-c4ccc(C)cc4)no3)o2)cc1OC` showed an RP-LC retention time of 762 s. As for `Cc1cc(=O)n2c3ccccc3n(CC(O)CN3CCN(c4ccccc4)CC3)c2c1C#N` (centres undefined), the figure is 670 s. For the compound `COc1cccc(CCC(=O)N2CC3CN(S(=O)(=O)c4ccc(C)cc4)CC(C2)O3)c1`, the RP-LC retention time was 908 s. As to `O=C(NCc1cccc(Cl)c1)C1CCCN(c2cnc3nccnc3c2)C1` (centres undefined), the RP-LC retention time is 749 s. As for `O=C(NCCc1ccccc1)C1CC(=O)N(CCc2c[nH]c3ccc(F)cc23)C1` (centres undefined), the figure is 867 s; as for `O=C(NCc1ccc(Cl)cc1)c1cc2sccc2n1Cc1ccc(F)cc1`, 1170 s. `COc1cc([C@@H]2c3cc4c(cc3[C@H](O)[C@@H](CO)[C@@H]2C(=O)NCc2ccccc2)OCO4)cc(OC)c1OC`: the RP-LC retention time is 700 s.

Turning to `O=C(NCc1cscn1)C1CCN(S(=O)(=O)c2cccc(C(F)(F)F)c2)CC1`, the RP-LC retention time came to 787 s.

`COc1ccc(NC(=O)Cn2c(N3CCc4ccccc4C3)nc(C)cc2=O)cc1` showed an RP-LC retention time of 757 s. `O=C(Cn1c(=O)c2cccn2c2ccc(F)cc21)NCCCN1CCCCC1` had an RP-LC retention time of 600 s. `Cc1ccc(N2CCC(NC(=O)Nc3cccc(Cl)c3C)C2=O)cc1` (centres undefined) registered an RP-LC retention time of 909 s. Regarding `COc1ccc(-c2nc3c4cnn(-c5ccccc5Cl)c4ncn3n2)cc1OC`, the RP-LC retention time was found to be 845 s.

As to `Cc1cc(N2CCN(C)CC2)nc2ccc(NC(=O)Nc3ccccc3)cc12`, the RP-LC retention time is 564 s.

In the case of `CCOC(=O)CNC(=O)N1CCC(N2CCN(Cc3cccc(C)c3)C2=O)CC1`, the RP-LC retention time worked out at 725 s. Under `C=C(C)Cn1c(C2CC(=O)N(c3ccccc3Br)C2)nc2ccccc21` (centres undefined) stands 708 s; under `CCC(=O)Nc1cc2c(cc1S(=O)(=O)c1ccccc1)n(CC)c(=O)n2CC`, 786 s. In turn, `Cc1ccsc1C(=O)NC1CCN(c2cc(-c3ccc(F)cc3)[nH]n2)C1` (centres undefined) showed an RP-LC retention time of 670 s.

Consider `Cn1ncc2c3ccccc3n(CC(=O)NCCC3=CCCCC3)c2c1=O`, for which the RP-LC retention time stood at 904 s. As to `COc1ccc(C)cc1NC(=O)C1CCN(c2cc(N3CCSCC3)ncn2)CC1`, the RP-LC retention time is 717 s.

`COc1ccc(CNC(=O)C2CCN(C(=O)N3CCOc4ccc(Cl)cc43)CC2)cc1` displayed an RP-LC retention time of 846 s.

`O=C(Nc1ccc(N2CCN(C3CCCC3)C2=O)nc1)c1ccncc1` registered an RP-LC retention time of 635 s.

`O=C(Nc1ccc(F)cc1)Nc1cccc(-c2ccc(N3CCOCC3)nn2)c1` registered an RP-LC retention time of 697 s. Under `CCOC(=O)c1noc2ncnc(Nc3cccc(CC)c3)c12` stands 1060 s; under `Cc1cc(=O)c(OCc2ccccc2F)cn1CC(=O)NCc1ccccc1Cl`, 632 s; under `O=c1cc(-c2cc3c(ccc4ccccc43)oc2=O)c2ccc(O)cc2o1`, 875 s.

In the case of `O=c1c2ccccc2c(-c2nc(-c3cccnc3)no2)cn1-c1ccc(Cl)cc1`, the RP-LC retention time was determined as 1120 s. Under `CC(=O)Nc1ccc(C(=O)NCc2ccc(C)o2)c(N2CCOCC2)c1` stands 684 s; under `COCCn1nc2n(c1=O)CCC1(CC2)CCN(C(=O)C2CCOC2)CC1` (centres undefined), 587 s; under `Cc1ccn2cc(-c3ccc(NC(=O)c4ccc5ccccc5c4)cc3)nc2n1`, 710 s. For the compound `O=C(Cc1coc2ccc3ccccc3c12)NCc1ccco1`, the RP-LC retention time amounted to 818 s. As for `O=c1ccn(-c2ccc(F)cc2)nc1-c1nc(-c2ccccc2F)no1`, the figure is 838 s.

For the origin of these results see the METLIN SMRT retention time set (Domingo-Almenara et al. 2019).
